Laboratory results from patent US12600732B2, “Bifunctional compounds for degrading BTK via ubiquitin proteosome pathway” (NURIX THERAPEUTICS, INC., priority 2019, dated 2026).
Values joined by “and” are separate entries in the source; they are usually repeats but may differ in a detail not shown here. Identical values can stand only once. Like-named read-outs stand apart in the source and are kept apart here. One block for each molecule: values may come before it.

Legend:
primary human T cells = experiment: T cell activation assay, CD25 and CD69 staining (flow cytometry); format: cell-based; settings: for CD25 Staining Anti-CD3/Anti-CD28 Stimulation / CD69 Staining Anti-CD3/Anti-CD28 Stimulation: fold-change of response relative to baseline; for expression of CD25 and CD69 compared to baseline (anti-CD3/anti-CD28 stimulation alone): primary human T cells
Method in brief: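 Primary human T cells stimulated via TCR with anti-CD3/anti-CD28 in the presence of test compound. IL-2 secretion measured by ELISA; surface CD25 and CD69 by flow cytometry. Values are fold-change versus anti-CD3/anti-CD28 stimulation without compound.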

BTK [1] = target: T1, BTK (Rattus norvegicus, UniProt Q5S255); experiment: PD data from rat (BTK degradation); format: in vivo; settings: blood
T1 construct: from tissue
From the text: (§1) In this example, compounds were profiled for activity in non-mouse species.

BTK [2] = target: T2, BTK (Canis lupus familiaris, UniProt A0A8I3P3Z9); experiment: PD data from dog (BTK degradation); format: in vivo; settings: blood
T2 construct: from tissue
From the text: as §1

[3] = system: B cell receptor (BCR) signaling; experiment: B cell activation assay (flow cytometry), mouse B cells; format: cell-based; settings: treatment 4 h, IgM stimulation 18 h
Method in brief: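 Activation markers CD69 and CD86 were read as geometric mean fluorescence intensity on gated B (CD20+CD3−) and T (CD3+CD20−) cells among live lymphocytes. Cells were stimulated with compound present the whole time. Baseline activation was taken from the unstimulated sample.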

TMD8 tumor cells = experiment: TMD8 xenograft efficacy study (wild-type BTK); format: in vivo, mouse; settings: TMD8 WT
Experimental: […] Tumor growth inhibition (% TGI) were calculated on the final day of measurement using the equation [1−(T−T0/C−T0)]×100, where T and C represent the mean size of tumors in the treated (T) and control (C) groups, and T0 refers to the tumor size at randomization.
(§2) This example examines the activity of various BTK CTMs in relevant disease models, including the WT and C481S TMD8 model, which models B cell malignancies with/without inhibitor-driven BTK mutations at C481.

1:1 TMD8 WT:TMD8 C481S = experiment: Mouse xenograft efficacy study, 1:1 TMD8 WT:TMD8 C481S model; format: in vivo; settings: PO, 30 mg/kg, BID, 21 days of dosing
From the text: (§3) Efficacy in Mouse Xenograft Models
as §2

BTK [4] = target: BTK (Homo sapiens, UniProt Q06187); experiment: BTK remaining in TMD8 WT mouse xenograft study; format: in vivo; design: from tissue; host or cells: TMD8 xenograft in CB.17 SCID mice
From the text: as §3, §2

BTK C481S = BTK C481S (Homo sapiens, UniProt Q06187, C481S); experiment: BTK remaining in TMD8 C481S mouse xenograft study; format: in vivo; design: from tissue; host or cells: TMD8 BTK-C481S xenograft in CB.17 SCID mice; settings: PO, 23 days of dosing
From the text: as §3, §2

[5] = PO (water bottle), 15 mg/kg, QD (water bottle), 21 days of dosing
[6] = PO (water bottle), 35 mg/kg, QD (water bottle), 23 days of dosing

SMILES: CN1CCN([C@H]2CCCN(c3cnc(C(N)=O)c(Nc4ccc(C5CCN(CC6CCN(c7ccc(C(=O)NC8CCC(=O)NC8=O)nc7)CC6)CC5)cc4)n3)C2)C1=O (stereo partly drawn) [Compound 130]
CD25 Staining Anti-CD3/Anti-CD28 Stimulation (primary human T cells; 1.4 nM): 1.02
CD69 Staining Anti-CD3/Anti-CD28 Stimulation (primary human T cells; 1.4 nM): 1.00
CD25 Staining Anti-CD3/Anti-CD28 Stimulation (primary human T cells; 37 nM): 0.98
CD69 Staining Anti-CD3/Anti-CD28 Stimulation (primary human T cells; 37 nM): 0.96
CD25 Staining Anti-CD3/Anti-CD28 Stimulation (primary human T cells; 333 nM): 0.55
CD69 Staining Anti-CD3/Anti-CD28 Stimulation (primary human T cells; 333 nM): 0.55
% BTK Remaining (BTK [1]; 1 mg/kg IV, 4 h): <1%
% BTK Remaining (BTK [1]; 1 mg/kg IV, 24 h): <1%
% BTK Remaining (BTK [1]; 10 mg/kg PO, 4 h): <1%
% BTK Remaining (BTK [1]; 10 mg/kg PO, 24 h): <1%
% BTK Remaining (BTK [1]; 30 mg/kg PO, 4 h): <1%
% BTK Remaining (BTK [1]; 30 mg/kg PO, 24 h): <1%

SMILES: NC(=O)c1ncc(N2CCCCC2)nc1Nc1ccc(C2CCN(C[C@@H]3CCN(c4ccc5c(c4)C(=O)N(C4CCC(=O)NC4=O)C5=O)C3)CC2)cc1 (stereo partly drawn) [Compound 149]
CD25 Staining Anti-CD3/Anti-CD28 Stimulation (primary human T cells; 1.4 nM): 1.31
CD69 Staining Anti-CD3/Anti-CD28 Stimulation (primary human T cells; 1.4 nM): 1.22
CD25 Staining Anti-CD3/Anti-CD28 Stimulation (primary human T cells; 37 nM): 1.02
CD69 Staining Anti-CD3/Anti-CD28 Stimulation (primary human T cells; 37 nM): 0.93
CD25 Staining Anti-CD3/Anti-CD28 Stimulation (primary human T cells; 333 nM): 0.61
CD69 Staining Anti-CD3/Anti-CD28 Stimulation (primary human T cells; 333 nM): 0.63
expression of CD25 and CD69 compared to baseline (anti-CD3/anti-CD28 stimulation alone) (primary human T cells): unchanged or decreased levels
% BTK Remaining (BTK [2]; 1 mg/kg IV, 2 h): 43%
% BTK Remaining (BTK [2]; 1 mg/kg IV, 4 h): 22%
% BTK Remaining (BTK [2]; 1 mg/kg IV, 8 h): 10%
% BTK Remaining (BTK [2]; 1 mg/kg IV, 24 h): 11%
% BTK Remaining (BTK [2]; 10 mg/kg PO, 2 h): 61%
% BTK Remaining (BTK [2]; 10 mg/kg PO, 4 h): 47%
% BTK Remaining (BTK [2]; 10 mg/kg PO, 8 h): 29%
% BTK Remaining (BTK [2]; 10 mg/kg PO, 24 h): 17%

SMILES: CN1CCN([C@@H]2CCCN(c3cnc(C(N)=O)c(Nc4ccc(C5CCN(CC6CCN(c7ccc(-c8nn(C9CCC(=O)NC9=O)c(=O)n8C)cc7)CC6)CC5)cc4)n3)C2)C1=O (stereo partly drawn) [Compound 121]
EC50 ([3]; read-out: CD69 EC50): 0.5 nM
EC50 ([3]; read-out: CD86 EC50): 0.9 nM

Continued, in another order:

EC50 ([3]; read-out: CD69 EC50): 0.2 nM
EC50 ([3]; read-out: CD86 EC50): 0.4 nM
% BTK Remaining (BTK [2]; 10 mg/kg PO, 2 h): 88%
% BTK Remaining (BTK [2]; 10 mg/kg PO, 4 h): 56%
% BTK Remaining (BTK [2]; 10 mg/kg PO, 8 h): 35%
% BTK Remaining (BTK [2]; 10 mg/kg PO, 24 h): 19%
% BTK Remaining (BTK [2]; 30 mg/kg PO, 2 h): 87%
% BTK Remaining (BTK [2]; 30 mg/kg PO, 4 h): 58%
% BTK Remaining (BTK [2]; 30 mg/kg PO, 8 h): 28%
% BTK Remaining (BTK [2]; 30 mg/kg PO, 24 h): 14%
BTK Remaining (% relative to vehicle) (BTK [4]; [5]): 7%
BTK Remaining (% relative to vehicle) (BTK [4]; [6]): 18%
BTK Remaining (% relative to vehicle) (BTK [4]; PO, 30 mg/kg, QD, 21 days of dosing): 32% and 20%
BTK Remaining (% relative to vehicle) (BTK C481S; 5 mg/kg, BID): 44%
BTK Remaining (% relative to vehicle) (BTK C481S; 10 mg/kg, QD): 38%
BTK Remaining (% relative to vehicle) (BTK C481S; 15 mg/kg, BID): 25%
BTK Remaining (% relative to vehicle) (BTK C481S; 30 mg/kg, BID): 39% and 35%
BTK Remaining (% relative to vehicle) (BTK C481S; 30 mg/kg, QD): 51% and 42%
BTK Remaining (% relative to vehicle) (BTK C481S; 60 mg/kg, QD): 36%
SMILES: CN1CCN([C@@H]2CCCN(c3cnc(C(N)=O)c(Nc4ccc(C5CCN(C[C@H]6CCN(c7ccc8c(c7)C(=O)N(C7CCC(=O)NC7=O)C8=O)C6)CC5)cc4)n3)C2)C1=O (stereo partly drawn) [Compound 44]
CD25 Staining Anti-CD3/Anti-CD28 Stimulation (primary human T cells; 1.4 nM): 1.25
CD69 Staining Anti-CD3/Anti-CD28 Stimulation (primary human T cells; 1.4 nM): 1.21
CD25 Staining Anti-CD3/Anti-CD28 Stimulation (primary human T cells; 37 nM): 0.86
CD69 Staining Anti-CD3/Anti-CD28 Stimulation (primary human T cells; 37 nM): 0.85
CD25 Staining Anti-CD3/Anti-CD28 Stimulation (primary human T cells; 333 nM): 0.52
CD69 Staining Anti-CD3/Anti-CD28 Stimulation (primary human T cells; 333 nM): 0.60
expression of CD25 and CD69 compared to baseline (anti-CD3/anti-CD28 stimulation alone) (primary human T cells): unchanged or decreased levels
Tumor Growth Inhibition (relative to vehicle) (TMD8 tumor cells; [5]): 29%
Tumor Growth Inhibition (relative to vehicle) (TMD8 tumor cells; [6]): 89%
Tumor Growth Inhibition (relative to vehicle) (TMD8 tumor cells; PO, 7.5 mg/kg, BID, 21 days of dosing): 100%
Tumor Growth Inhibition (relative to vehicle) (TMD8 tumor cells; PO, 15 mg/kg, BID, 21 days of dosing): 100%
Tumor Growth Inhibition (relative to vehicle) (TMD8 tumor cells; PO, 30 mg/kg, BID, 23 days of dosing): 99%
Tumor Growth Inhibition (relative to vehicle) (TMD8 tumor cells; PO, 30 mg/kg, QD, 23 days of dosing): 83%
Tumor Growth Inhibition (relative to vehicle) (TMD8 tumor cells; PO, 90 mg/kg, BID, 23 days of dosing): 100%
Tumor Growth Inhibition (relative to vehicle) (TMD8 tumor cells; PO, 90 mg/kg, QD, 23 days of dosing): 93%
Tumor Growth Inhibition (relative to vehicle) (1:1 TMD8 WT:TMD8 C481S): 54%

EC50 ([3]; read-out: CD69 EC50): 0.07 nM
EC50 ([3]; read-out: CD86 EC50): 0.2 nM
SMILES: CN1CCN([C@@H]2CCCN(c3cnc(C(N)=O)c(Nc4ccc(C5CCN(CC6CCN(c7ccc8c(=O)n(C9CCC(=O)NC9=O)ccc8c7)CC6)CC5)cc4)n3)C2)C1=O (stereo partly drawn) [Compound 72]
